# From paper PMC8975978, “Bioassay-guided isolation of cytotoxic constituents from the flowers of Aquilaria sinensis” (Natural Products and Bioprospecting, 2022)
# Like-named read-outs stand apart in the source and are kept apart here.
# Columns and labels:
# [1] = tested on: human lung adenocarcinoma SPC-A-1 cells; assay: MTS cytotoxicity assay, SPC-A-1; assay type: cell-based
# Description: (§1) It had better inhibition against lung cancer cell lines than against other cancer cell lines (Table 1). Thus, the next bioactivity-guided separations were conducted according to the cytotoxicities of the fractions against lung cancer cell lines (A-549, NCI-H520, and SPC-A-1), as well as normal BEAS-2B cells and paclitaxel-resistant lung cancer A549/Taxol cells.
# (§2) The cytotoxicity activities were evaluated by MTS assay as previously described.
# [2] = tested on: human lung squamous cell carcinoma NCI-H520 cells; assay: MTS cytotoxicity assay, NCI-H520; assay type: cell-based
# Description: as §1, §2
# [3] = tested on: human lung adenocarcinoma A549 cells; assay: MTS cytotoxicity assay, A549; assay type: cell-based
# Description: as §1, §2
# [4] = tested on: human normal bronchial epithelial BEAS-2B cells; assay: MTS cytotoxicity assay, normal BEAS-2B; assay type: cell-based
# Description: as §1, §2
# [5] = tested on: paclitaxel-resistant A549 (A549/Taxol) cells; assay: MTS cytotoxicity assay, A549/Taxol; assay type: cell-based, human
# Description: as §1, §2
# [6] = tested on: human cervical cancer HeLa cells; assay: MTS cytotoxicity assay, HeLa; assay type: cell-based; conditions: Table 1, HeLa
# Description: as §1, §2
# [7] = tested on: human neuroblastoma SH-SY5Y cells; assay: MTS cytotoxicity assay, SH-SY5Y; assay type: cell-based; conditions: Table 1, SH-SY5Y
# Description: as §1, §2
# [8] = tested on: human ovarian carcinoma SK-OV-3 cells; assay: MTS cytotoxicity assay, SK-OV-3; assay type: cell-based; conditions: Table 1, SK-OV-3
# Description: as §1, §2
# [9] = tested on: human T-cell leukemia MT4 cells; assay: MTS cytotoxicity assay, MT4; assay type: cell-based; conditions: Table 1, MT4
# Description: as §1, §2
# [10] = tested on: human prostate cancer PC-3 cells; assay: MTS cytotoxicity assay, PC-3; assay type: cell-based; conditions: Table 1, PC-3
# Description: as §1, §2
# [11] = tested on: human hepatoma SMMC-7721 cells; assay: MTS cytotoxicity assay, SMMC-7721; assay type: cell-based; conditions: Table 1, SMMC-7721
# [12] = tested on: human breast cancer MDA-MB-231 cells; assay: MTS cytotoxicity assay, MDA-MB-231; assay type: cell-based; conditions: Table 1, MDA-MB-231
# Description: as §1, §2
# [13] = tested on: human small cell lung cancer NCI-H446 cells; assay: MTS cytotoxicity assay, NCI-H446; assay type: cell-based; conditions: Table 1, NCI-H446
# Description: as §1, §2
# [14] = tested on: human large cell lung carcinoma NCI-H460 cells; assay: MTS cytotoxicity assay, NCI-H460; assay type: cell-based; conditions: Table 1, NCI-H460
# Description: as §1, §2
# [15] = tested on: human colon cancer SW-480 cells; assay: MTS cytotoxicity assay, SW480; assay type: cell-based; conditions: Table 1, SW480
# Description: as §1, §2
# [16] = tested on: human breast cancer MCF-7 cells; assay: MTS cytotoxicity assay, MCF-7; assay type: cell-based; conditions: Table 1, MCF-7
# Description: as §1, §2
# [17] = tested on: human leukemia HL-60 cells; assay: MTS cytotoxicity assay, HL-60; assay type: cell-based; conditions: Table 1, HL-60
# Description: as §1, §2
# [18] = tested on: SPC-A-1, NCI-H520, A549 and A549/Taxol cell lines; assay: MTS cytotoxicity assay, four tested lung cancer cell lines together; assay type: cell-based, human; conditions: four tested cancer cell lines taken together (SPC-A-1, NCI-H520, A549, A549/Taxol)
# Description: Thus, the next bioactivity-guided separations were conducted according to the cytotoxicities of the fractions against lung cancer cell lines (A-549, NCI-H520, and SPC-A-1), as well as normal BEAS-2B cells and paclitaxel-resistant lung cancer A549/Taxol cells.
# Isolates 1–6 were evaluated for their cytotoxicities against SPC-A-1, NCI-H520, A549, A549/Taxol, and BEAS-2B cell lines (Table 5).
# as §2
# SK-MEL cells = tested on: SK-MEL cells; set-up: method as in PMID 28754541; conditions: cited from earlier work
# [19] = Homo sapiens, SPCA1, Table 5, SPC-A-1, read-out: IC50
# [20] = Homo sapiens, A549/Taxol, Table 5, A549/Taxol, read-out: IC50
# [21] = Table 5, SPC-A-1, read-out: IC50
# [22] = Table 5, NCI-H520, read-out: IC50
# [23] = Table 5, BEAS-2B normal cells, read-out: IC50
# [24] = Table 5, A549/Taxol, read-out: IC50
molecule,measurement,setting,value
"COc1cc(O)c2c(c1)O[C@H](c1ccc(O)cc1)CC2=O [Compound 5, (−)-(2S)-5,4ʹ-dihydroxy-7-methoxyflavanone]",IC50,[1]; [19],> 40 µM
same,IC50,"[2]; Homo sapiens, Table 5, NCI-H520, read-out: IC50",> 40 µM
same,IC50,"[3]; Homo sapiens, Table 5, A549, read-out: IC50",> 40 µM
same,IC50,"[4]; Homo sapiens, BEAS-2B, Table 5, BEAS-2B normal cells, read-out: IC50",> 40 µM
same,IC50,[5]; [20],> 40 µM
N.N.[Cl][Pt][Cl] [Cisplatin],IC50,"[1]; Table 1, SPC-A-1",1.76 ± 0.40 µg/mL
same,IC50,"[1]; Table 2, SPC-A-1",3.10 ± 0.13 µg/mL
same,IC50,"[1]; Table 3, SPC-A-1",3.06 ± 1.07 µg/mL
same,IC50,"[1]; Table 4, SPC-A-1",2.49 ± 0.07 µg/mL
same,IC50,[1]; [21],21.4 ± 0.35 µM
same,IC50,"[2]; Table 1, NCI-H520",6.69 ± 1.46 µg/mL
same,IC50,"[2]; Table 2, NCI-H520",3.12 ± 0.18 µg/mL
same,IC50,"[2]; Table 3, NCI-H520",3.75 ± 0.52 µg/mL
same,IC50,"[2]; Table 4, NCI-H520",3.11 ± 0.22 µg/mL
same,IC50,[2]; [22],12 ± 0.6 µM
same,IC50,"[3]; Table 1, A549",3.83 ± 0.79 µg/mL
same,IC50,"[3]; Table 2, A-549",4.99 ± 0.08 µg/mL
same,IC50,"[3]; Table 3, A549",3.02 ± 0.59 µg/mL
same,IC50,"[3]; Table 4, A549",2.28 ± 0.57 µg/mL
same,IC50,"[3]; Table 5, A549, read-out: IC50",13.5 ± 0.64 µM
same,IC50,[6],1.14 ± 0.152 µg/mL
same,IC50,[7],2.85 ± 0.272 µg/mL
same,IC50,[8],3.67 ± 0.97 µg/mL
same,IC50,[9],0.16 ± 0.01 µg/mL
same,IC50,[10],1.38 ± 0.23 µg/mL
same,IC50,[11],1.53 ± 0.11 µg/mL
same,IC50,[12],3.16 ± 0.97 µg/mL
same,IC50,[13],3.78 ± 0.79 µg/mL
same,IC50,[14],5.29 ± 0.48 µg/mL
same,IC50,[15],2.00 ± 0.52 µg/mL
same,IC50,[16],2.00 ± 0.93 µg/mL
same,IC50,[17],1.97 ± 1.30 µg/mL
same,IC50,"[4]; Table 1, BEAS-2B normal cells",9.14 ± 1.41 µg/mL
same,IC50,"[4]; Table 2, BEAS-2B normal cells",7.36 ± 0.56 µg/mL
same,IC50,"[4]; Table 3, BEAS-2B normal cells",> 12 µg/mL
same,IC50,"[4]; Table 4, BEAS-2B normal cells",8.86 ± 1.32 µg/mL
same,IC50,[4]; [23],34.9 ± 1.16 µM
same,IC50,"[5]; Table 2, A549/Taxol",4.29 ± 0.26 µg/mL
same,IC50,"[5]; Table 3, A549/Taxol",3.41 ± 0.47 µg/mL
same,IC50,"[5]; Table 4, A549/Taxol",4.13 ± 0.86 µg/mL
same,IC50,[5]; [24],15 ± 0.93 µM
"CC(=O)OC(C)(C)C=CC(=O)C(C)(O)C1C(O)CC2(C)C3CC=C4C(CC(=O)OC4(C)C)C3(C)C(=O)CC12C (centres unmarked) [Compound 1, aquilarolide A]",IC50,[1]; [19],0.56 ± 0.02 µM
same,IC50,"[2]; Homo sapiens, NCI-H520, Table 5, NCI-H520, read-out: IC50",0.16 ± 0.01 µM
same,IC50,"[3]; Homo sapiens, A549, Table 5, A549, read-out: IC50",0.35 ± 0.06 µM
same,IC50,"[4]; Homo sapiens, Table 5, BEAS-2B normal cells, read-out: IC50",17.9 ± 0.3 µM
same,IC50,[5]; [20],0.2 ± 0.01 µM
cucurbitacin B [Compound 4],IC50,[1]; [21],0.016 µM
same,IC50,[2]; [22],0.002 µM
same,IC50,"[3]; Table 5, A549, read-out: IC50",0.03 µM
same,IC50,[4]; [23],14.4 ± 1.36 µM
same,IC50,[5]; [24],0.007 ± 0.001 µM
same,IC50,[18],≤ 0.03 µM
aquilaside B,IC50,SK-MEL cells,17 µM
